Measurements taken from patent publication US20230057309A1, “Inhibitors of DREAM Complex Assembly and/or Function For Use In Repairing DNA Damage” (priority 2021, published 2023).

Key:
DREAM target genes = assay: RNA-seq of quiescent (serum-starved) U2OS cells treated with DYRK1A inhibitors; assay type: cell-based, human; conditions: 24 h treatment, harmine 10 μM, INDY 25 μM; for number of the 67 DNA repair genes bound by DREAM that were upregulated: FDR<0.01
Method: (§1) U2OS were cultured in DMEM, high glucose GlutaMAX Supplement, Pyruvate (Thermo Fisher Scientific, 31966047) with 10% fetal bovine serum (FBS; Biochrom GmbH, S0615) and 1% Penicillin-Streptomycin (Thermo Fisher Scientific, 15140112). Cells were kept at 37° C. in a 5% CO2 incubator (Binder). Cell dissociation from the plates was performed with Accutase (Sigma, A6964). Cells were cultivated in FBS-free medium for 48 hours before genotoxic treatment were applied. […] Before the genotoxic treatment, cells were washed with FBS-free medium. For the UV treatment, medium was removed from the plates and cells were irradiated using 254 nm UV-C light Phillips UV6 bulbs. The MMS treatment was performed by adding MMS at 2 mM for 2 hours, followed by 3 washes with FBS-free medium. Quantification via FACS of cell death and apoptosis was performed 24 hours after genotoxic treatment.
For the qPCRs and RNA-seq on L1 worms, around 10.000 (qPCR) or 40.000 (RNA-seq) bleach-synchronized L1 worms in triplicates (qPCR) or quadruplicates (RNA-seq) per strain and condition were placed in seeded NGM plates and left at 20° C. for 3 hours. Posteriorly, they were irradiated with a 310 nm UV-B light Philips UV6 bulb in a Waldmann UV236B irradiation device or left unirradiated, and left for 6 more hours to allow the DNA damage related transcriptional changes to be taking place. After this, worms were collected, washed three times with M9 buffer, and the pellet was placed in a tube containing 1 ml of TRIzol™ (Invitrogen, 15596018) and 1 mm zirconia/silica beads (Biospec Products, 11079110z). To extract the RNA, worms were first disrupted with a Precellys24 (Bertin Instruments, P000669-PR240-A), and then the RNA isolation was performed by using the RNeasy Mini Kit (QIAGEN, 74106) following the manufacturer's specifications, except for the use of 1-bromo-3-chloropropane (Sigma, B9673) instead of chloroform. The RNA was quantified using NanoDrop™ 8000 (ThermoFisher, ND-8000-GL). […] Cells were disrupted with RLT buffer and homogenized with QIAshredder spin columns (QIAGEN, 79656).
The human RNA-seq data were processed with Salmon-1.1 (Patro et al., 2017) against a decoy-aware transcriptome (gencode.v37 transcripts and the GRCh38.primary_assembly genome) with the following parameter: --validateMappings -gcBias -seqBias. The output was imported and summarized to the gene-level with tximport (1.14.2) (Soneson, Love and Robinson, 2016) and differential gene analysis was done with edgeR (3.28.1) (Robinson, McCarthy and Smyth, 2009).

[1] = test system: Podocyte-specific Ercc1 knockout mice; assay: Kidney function (proteinuria) in podocyte-specific Ercc1 knockout mice; assay type: in vivo, mouse; conditions: 10 mg/kg/day for 4 weeks from 3 weeks of age; urine 8 and 11 days afterwards
Method: Proteinuria as endpoint for kidney dysfunction was assessed by Coomassie brilliant blue staining in urine 8 days (FIG. 7A) and 11 days (FIG. 7B) afterwards.
Proteinuria as endpoint for kidney dysfunction was assessed in urine 8 days and 11 days afterwards by assessing overall protein levels in urine samples via Coomassie brilliant blue staining after electrophoretic separation in a polyacrylamide gel.

Ercc1−/− mice = assay: Photoreceptor cell loss in Ercc1 knockout mouse model of premature aging (TUNEL staining of retina); assay type: in vivo; conditions: 10 mg/kg i.p. 3 times/week from P3, retina at P15
Source text: Mice were sacrificed at postnatal day P15 for retina tissue isolation. Tissues were embedded in optimal cutting temperature (OCT) compound, cryosectioned and stained using in situ cell detection kit (TUNEL staining) (11684817910, Roche).

[2] = molecular target: T1, monoamine oxidase A (MAOA) (Homo sapiens, UniProt P21397); conditions: cited from earlier work
T1 sequence (P21397 1-527): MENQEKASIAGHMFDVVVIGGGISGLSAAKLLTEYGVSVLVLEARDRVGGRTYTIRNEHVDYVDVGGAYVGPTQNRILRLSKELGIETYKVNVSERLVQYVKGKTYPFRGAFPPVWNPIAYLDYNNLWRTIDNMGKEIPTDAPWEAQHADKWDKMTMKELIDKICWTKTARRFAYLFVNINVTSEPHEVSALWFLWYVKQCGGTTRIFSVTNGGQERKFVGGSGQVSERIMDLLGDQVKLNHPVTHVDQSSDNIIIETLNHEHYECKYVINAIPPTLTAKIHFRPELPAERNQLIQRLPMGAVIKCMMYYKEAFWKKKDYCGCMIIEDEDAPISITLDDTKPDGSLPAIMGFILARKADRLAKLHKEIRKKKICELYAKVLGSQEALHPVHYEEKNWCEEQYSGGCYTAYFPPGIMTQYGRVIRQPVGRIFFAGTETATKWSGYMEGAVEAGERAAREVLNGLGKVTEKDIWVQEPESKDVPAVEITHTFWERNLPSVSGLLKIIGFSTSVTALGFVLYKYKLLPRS

U2OS cells [3] = assay: MMS-induced apoptosis in quiescent U2OS cells (Annexin V / 7-AAD FACS); assay type: cell-based, human; conditions: MMS 2 mM for 2 hours; 24 h after treatment; harmine 10 μM, INDY 25 μM
Method: as §1
(§2) Collected cells were incubated in Annexin V Binding buffer (BioLegend, 422201) with Pacific Blue Annexin V (BioLegend, 640917) and 7-AAD (Thermo Fisher Scientific, 00699350) at 4° C. for 15 minutes. Cells were measured using a MACSQuant VYB (Miltenyi Biotec) and analyzed using FlowJo (BD).

U2OS cells [4] = assay: UV-induced apoptosis in quiescent U2OS cells (Annexin V / 7-AAD FACS); assay type: cell-based, human; conditions: UV 2 mJ·cm-2; 24 h after UV; harmine 10 μM, INDY 25 μM
Method: as §1, §2

U2OS cells [5] = assay: DNA repair kinetics in U2OS cells, γH2AX antibody staining after UV; assay type: cell-based, human; conditions: quiescent cells, hours after UV; harmine 10 μM, INDY 25 μM
Method: Before the genotoxic treatment, cells are washed with FBS-free medium. For the UV treatment, medium is removed from the plates and cells are irradiated using 254 nm UV-C light Phillips UV6 bulbs. The MMS treatment is performed, e.g., by adding MMS at 2 mM for 2 hours, followed by 3 washes with FBS-free medium. Cells are fixed in a solution comprising PFA on HistoBond+ Adhesion Microscope Slides (Marienfeld, 0810461). To estimate the total amount of DNA damage per cell, the fixed cells are incubated overnight at 4° C. in PBS comprising anti-γH2AX antibody (Mouse anti-phospho-Histone H2A.X (Ser139), clone JBW301, Millipore, Cat #: 05-636), then washed 5 times 10 minutes in a suitable buffer at RT, prior to incubation for at least two hours with a secondary antibody. Finally, the slides are washed another 5 times 10 minutes in PBS-T and dried overnight. The next morning, slides are sealed with a cover slip.

DYRK1A kinase = DYRK1A kinase (Homo sapiens, UniProt Q13627); conditions: cited from earlier work

| SMILES | expression of DREAM target genes (DREAM target genes) | number of the 67 DNA repair genes bound by DREAM that were upregulated (DREAM target genes) | proteinuria (Coomassie staining of urine) [1] | apoptosis in photoreceptor cells (TUNEL) (Ercc1−/− mice) | MAOA inhibition [2] | resistance to MMS (apoptotic cells) (U2OS cells [3]) | UV-induced apoptosis (annexin V positive + annexin V/7-AAD positive cells) vs mock treated cells (U2OS cells [4]) | γH2AX amount after UV irradiation vs control cells (U2OS cells [5]) | DYRK1A inhibition, selectivity (DYRK1A kinase) |
| --- | --- | --- | --- | --- | --- | --- | --- | --- | --- |
| COc1ccc2c(c1)[nH]c1c(C)nccc12 [harmine] | upregulation of DREAM target genes | 58 | mitigation of proteinuria | prevented apoptosis in photoreceptor cells | could also inhibit monoamine oxidase A (MAOA) | boosted the resistance to the alkylating agent MMS | highly significant reduction in UV-induced apoptosis | – | – |
| CCN1/C(=C/C(C)=O)Sc2ccc(O)cc21 [INDY, (1Z)-1-(3-ethyl-5-hydroxy-2(3H)-benzothiazoylidene)-2-propanone] | upregulation of DREAM target genes | 46 | – | – | – | boosted the resistance to the alkylating agent MMS | highly significant reduction in UV-induced apoptosis | significantly lower amounts of γH2AX | highly selective DYRK1A inhibitor |
